{"source": "patent US10604552B2", "about": "“Generation of novel metabolite-responsive transcription regulator biosensors” (NORTHWESTERN UNIVERSITY, priority 2016, dated 2020)", "test_system": "TOP10 Escherichia coli cells", "format": "cell-based", "conditions": "100 mM maltose; SP biosensor with No Sites or Go66 reporter", "protocol": "All experiments were conducted in TOP10 Escherichia coli cells (F-mcrA Δ(mrr-hsdRMS-mcrBC) φ80lacZAM15 ΔlacX74 nupG recAl araD139 Δ(ara-leu)7697 galE15 galK16 rpsL(Str^R) endA1 λ^−) (Life Technologies). Cells were maintained in Lysogeny Broth (LB) Lennox formulation (10 g/L of tryptone, 5 g/L of yeast extract, 5 g/L of NaCl) supplemented with appropriate antibiotics (Ampicillin 100 μg/mL or Kanamycin 50 μg/mL). All experimental analysis was conducted in M9 minimal media (1×M9 salts, 0.2% Casamino Acids, 2 mM MgSO^4, 0.1 mM CaCl^2, 1 mM Thiamine HCl) containing glycerol (0.4%) as the primary carbon source. 1% arabinose and variable amounts of maltose monohydrate and isopropyl β-D-1-thiogalactopyranoside (IPTG) were added as indicated. M9 medium containing both Ampicillin and Kanamycin was used to maintain the strains that contained both a reporter plasmid and a biosensor plasmid.\nCultures were inoculated from single colonies into 2 mL of M9 media and grown overnight to stationary phase. Overnight cultures were diluted 1:20 and grown into exponential phase (OD600˜0.5). […] Plates with lids were incubated and shaken in a continuous double orbital pattern at 548 cpm (2 mm) inside a BioTek Synergy H1 plate reader for 10 h with GFP, mCherry, and OD600 measurements taken every 15 min. […]"}
{"smiles": "OC[C@H]1O[C@H](O[C@H]2[C@H](O)[C@@H](O)C(O)O[C@@H]2CO)[C@H](O)[C@@H](O)[C@@H]1O", "note": "(mixture of isomers) [maltose]", "values": [{"measurement": "impact on cell growth", "result": "did not substantially impact cell growth"}]}
